From patent publication US10299999B2, “Flavour composition comprising menthol and menthane carboxamides” (Givaudan, S.A., priority 2011, dated 2019)

Test: Toothpaste sensory panel: flavours A-C at 1% in silica toothpaste base, scored 0-10 for cooling, tingling, freshness and overall preference
Format: in vivo, naive volunteers
Details: low levels replacing high levels of menthol in a toothpaste flavour
Method: The Flavours were each incorporated into a standard silica toothpaste base at 1%:
All three toothpastes were coded and given to 37 naive volunteers. The volunteers were asked to brush the teeth for 30 seconds and score each toothpaste (0-10 scale) for cooling, tingling and freshness at each of six time points: 0 minutes, 5 minutes, 10 minutes, 20 minutes, 30 minutes and 60 minutes. At the end of the 60 minutes, they were also asked for their overall preference scores (0-10 scale).

CC(C)[C@@H]1CC[C@@H](C)C[C@H]1C(=O)Nc1ccc(CC#N)cc1 (stereo in doubt) [Evercool 180, N-(4-cyanomethylphenyl) p-menthanecarboxamide]
sensorial benefits compared with the flavour with the high levels of menthol: superior sensorial benefits
